Laboratory results: patent US20170014386A1, “Treatment of Multidrug-Resistant Nephrotic Syndrome (MDR-NS) in Children” (AbbVie, Inc., priority 2015, published 2017)
“Also recorded” adds a separate entry of the source.

Key:
Nphs2^R140Q/− mice [1] = experiment: proteinuria in inducible mouse model of podocin-related nephrotic syndrome; format: in vivo
Method: We have analyzed results from studies in a transgenic mouse model where the mice were treated with atrasentan. Using the Cre recombinase technology, we generated a novel inducible mouse model of podocin-related nephrotic syndrome. Cross-breeding of animals carrying one foxed podocin construct, one podocin allele with the R140Q mutation, and tamoxifen-sensitive inducible Cre enabled us to induce hemizygosity for the R140Q mutant. In this work, we were able to examine the human missense mutation […] of NPHS2 gene identified in pediatric patients with nephrotic syndrome in vivo in an inducible mouse model of R140Q mutation (murine analogue to the human mutation). […] Furthermore, from the end of the week four of observation the values of plasma urea and creatinine started to increase slightly and the creatinine clearance appeared to reduce, pointing to the beginning of renal failure. Seven animals were treated with 5 mg/kg/d atrasentan and another three animals were treated with the lower dose of 2.5 mg/kg/d atrasentan via food intake for four weeks. Furthermore, we started a new group of 8 animals with a higher dose treatment of 15 mg/kg/d atrasentan. […] Proteinuria (FIG. 1A, FIG. 1B, and FIG. 1D), weight gain and blood pressure (FIG. 1C) were monitored once weekly. All animals were sacrificed at the end of the observation period at week 5 (or week 9 with delayed treatment) and the biochemical parameters (FIG. 3A-E) were determined. All results were compared to two control groups of healthy and sick untreated animals. […] Therefore, we started the treatment after 4 weeks of disease state (5 mg/kg/d) when animals are showing high proteinuria, performing 4-weeks treatment duration (n=14) and 8 weeks treatment duration (n=4), respectively. Proteinuria (FIG. 6), weight gain and blood pressure (FIG. 7) were monitored at least every 2 weeks. All animals were sacrificed at the end of the observation period and biochemical parameters (FIG. 8) as well as histological changes (FIG. 9) were determined consequently. […]

Nphs2^R140Q/− mice [2] = experiment: mean arterial blood pressure in inducible mouse model of podocin-related nephrotic syndrome; format: in vivo
Method: We have analyzed results from studies in a transgenic mouse model where the mice were treated with atrasentan. Using the Cre recombinase technology, we generated a novel inducible mouse model of podocin-related nephrotic syndrome. Cross-breeding of animals carrying one foxed podocin construct, one podocin allele with the R140Q mutation, and tamoxifen-sensitive inducible Cre enabled us to induce hemizygosity for the R140Q mutant. In this work, we were able to examine the human missense mutation […] of NPHS2 gene identified in pediatric patients with nephrotic syndrome in vivo in an inducible mouse model of R140Q mutation (murine analogue to the human mutation). […] Furthermore, from the end of the week four of observation the values of plasma urea and creatinine started to increase slightly and the creatinine clearance appeared to reduce, pointing to the beginning of renal failure. Seven animals were treated with 5 mg/kg/d atrasentan and another three animals were treated with the lower dose of 2.5 mg/kg/d atrasentan via food intake for four weeks. Furthermore, we started a new group of 8 animals with a higher dose treatment of 15 mg/kg/d atrasentan. […] Proteinuria (FIG. 1A, FIG. 1B, and FIG. 1D), weight gain and blood pressure (FIG. 1C) were monitored once weekly. All animals were sacrificed at the end of the observation period at week 5 (or week 9 with delayed treatment) and the biochemical parameters (FIG. 3A-E) were determined. All results were compared to two control groups of healthy and sick untreated animals. […] Therefore, we started the treatment after 4 weeks of disease state (5 mg/kg/d) when animals are showing high proteinuria, performing 4-weeks treatment duration (n=14) and 8 weeks treatment duration (n=4), respectively. Proteinuria (FIG. 6), weight gain and blood pressure (FIG. 7) were monitored at least every 2 weeks. All animals were sacrificed at the end of the observation period and biochemical parameters (FIG. 8) as well as histological changes (FIG. 9) were determined consequently. All results were compared to control groups of healthy and sick untreated animals.

Nphs2^R140Q/− mice [3] = experiment: kidney histopathology (tubulointerstitial fibrosis, glomerular sclerosis index, podocytes per glomerulus) in the mouse model; format: in vivo
Method: We have analyzed results from studies in a transgenic mouse model where the mice were treated with atrasentan. Using the Cre recombinase technology, we generated a novel inducible mouse model of podocin-related nephrotic syndrome. Cross-breeding of animals carrying one foxed podocin construct, one podocin allele with the R140Q mutation, and tamoxifen-sensitive inducible Cre enabled us to induce hemizygosity for the R140Q mutant. In this work, we were able to examine the human missense mutation […] of NPHS2 gene identified in pediatric patients with nephrotic syndrome in vivo in an inducible mouse model of R140Q mutation (murine analogue to the human mutation). […] Furthermore, from the end of the week four of observation the values of plasma urea and creatinine started to increase slightly and the creatinine clearance appeared to reduce, pointing to the beginning of renal failure. Proteinuria (FIG. 1A, FIG. 1B, and FIG. 1D), weight gain and blood pressure (FIG. 1C) were monitored once weekly. All animals were sacrificed at the end of the observation period at week 5 (or week 9 with delayed treatment) and the biochemical parameters (FIG. 3A-E) were determined. All results were compared to two control groups of healthy and sick untreated animals. […] Quantification was done with Image ProPremier (glomerular sclerosis index-GSI, 50 glomeruli/animal). […] FIG. 5C tabulates podocyte numbers per glomerulusWT1-via immunostaining of glomerular cross-sections (4 μm and 10 μm). Quantification was done with ImageJ according to Animal Models of Diabetic Complications Consortium protocol. 50 glomeruli/animal. We found no effect on the number of podocytes per glomerulus in treated animals. Proteinuria (FIG. 6), weight gain and blood pressure (FIG. 7) were monitored at least every 2 weeks. All animals were sacrificed at the end of the observation period and biochemical parameters (FIG. 8) as well as histological changes (FIG. 9) were determined consequently. All results were compared to control groups of healthy and sick untreated animals. […] FIG. 9A are exemplary images of healthy, untreated and Atrasentan treated kidney samples.

[4] = system: Endothelin-1, ETAR and ETBR; experiment: expression of Endothelin-1, ETAR and ETBR (real-time PCR, Western blot) in kidney of the mouse model; format: in vivo; details: Atrasentan treated animals, Example 2
Method: Western blot analysis was performed to confirm the observation of increased mRNA level in the late course of disease (FIG. 11).

podocin = podocin expression analysis (Western blot, qRT-PCR, immunofluorescence) in the mouse model; format: in vivo; details: treated animals, Example 2
Method: Further podocin expression analysis was carried out.

ETA receptor = target: T1, ETA receptor (Homo sapiens, UniProt P25101); details: cited from earlier work
T1 sequence (P25101 21-427): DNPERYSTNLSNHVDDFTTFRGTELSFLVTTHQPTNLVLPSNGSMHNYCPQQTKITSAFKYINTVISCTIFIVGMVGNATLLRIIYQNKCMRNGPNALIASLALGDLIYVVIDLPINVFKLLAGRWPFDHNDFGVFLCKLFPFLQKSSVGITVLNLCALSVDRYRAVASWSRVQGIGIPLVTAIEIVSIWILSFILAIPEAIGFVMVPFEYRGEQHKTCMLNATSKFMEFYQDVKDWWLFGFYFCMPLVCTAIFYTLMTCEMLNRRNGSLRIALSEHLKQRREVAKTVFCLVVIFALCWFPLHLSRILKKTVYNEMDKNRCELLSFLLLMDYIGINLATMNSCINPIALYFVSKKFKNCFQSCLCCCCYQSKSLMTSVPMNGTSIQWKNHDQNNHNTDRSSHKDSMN

[5] = delayed treatment, 4 weeks of treatment, compared to sick untreated animals of the same age, Example 2

In the case of `CCCCN(CCCC)C(=O)CN1C[C@H](c2ccc3c(c2)OCO3)[C@@H](C(=O)O)[C@@H]1c1ccc(OC)cc1` [atrasentan, (2R,3R,4S)-4-(1,3-Benzodioxol-5-yl)-1-[2-(dibutylamino)-2-oxoethyl]-2-(4-methoxyphenyl)pyrrolidine-3-carboxylic acid], the proteinuria (Nphs2^R140Q/− mice [1]; delayed treatment 5 mg/kg/d after 4 weeks of disease state, Example 2) is reported as “reaches a peak and declines afterwards progressively; also recorded: decreased progressively”, the proteinuria (Nphs2^R140Q/− mice [1]; delayed treatment 5 mg/kg/d started four weeks after induction, n=9, Example 1) is reported as “effective attenuation of proteinuria; also recorded: antiproteinuric effect” and the proteinuria (Nphs2^R140Q/− mice [1]; immediate or prophylactic treatment, 2.5, 5 or 15 mg/kg/d via food, first 4 weeks after induction, Example 1) is reported as “no beneficial effect in attenuating proteinuria; also recorded: no antiproteinuric effect”. The blood pressure (Nphs2^R140Q/− mice [2]; delayed treatment 5 mg/kg/d, compared to untreated animals, Example 1) was “lowered blood pressure”, the MAP (Nphs2^R140Q/− mice [2]; delayed treatment (D), wk7, p=0.001 v untreated 99.5) was 80.4 mmHg and the blood pressure (Nphs2^R140Q/− mice [2]; four-week delay, 5 mg/kg/d, compared to untreated animals at week 5 and 7 (p=0.001, p=0.047), Example 2) was “significant decrease of blood pressure”. For the same compound, the blood pressure (Nphs2^R140Q/− mice [2]; prophylactic 2.5 mg/kg/d, compared to untreated and healthy animals, Example 1) was “higher blood pressure”, the blood pressure (Nphs2^R140Q/− mice [2]; prophylactic 5 mg/kg/d, compared to untreated and healthy animals, Example 1) was “higher blood pressure” and the blood pressure (Nphs2^R140Q/− mice [2]; prophylactic 15 mg/kg/d, compared to untreated animals, Example 1) was “lower blood pressure”. For the same compound, the tubulointerstitial fibrosis (Nphs2^R140Q/− mice [3]; 2.5 mg/kg/d, p<0.05 compared to untreated group, Example 1) was “reduced area affected by fibrosis”, the tubulointerstitial fibrosis (Nphs2^R140Q/− mice [3]; 5 mg/kg/d, p<0.05 compared to untreated group, Example 1) was “reduced area affected by fibrosis” and the tubulointerstitial fibrosis (Nphs2^R140Q/− mice [3]; 15 mg/kg/d, Example 1) was “increase of tubulointerstial fibrosis”. The “glomerular sclerosis index (GSI)” value (Nphs2^R140Q/− mice [3]; all treatment groups, PAS staining, 50 glomeruli/animal, Example 1) was “No improvement”, the podocytes per glom (Nphs2^R140Q/− mice [3]; delayed treatment (D), n.s. vs. untreated wk 8 32%) was 54 % of healthy controls and the GSI (Nphs2^R140Q/− mice [3]; delayed treatment (D), n=9, p=0.0008 v untreated wk 8 2.27) was 1.69. The glomerulosclerosis (Nphs2^R140Q/− mice [3]; [5]) was “mitigated”, the tubulointerstitial fibrosis (Nphs2^R140Q/− mice [3]; [5]) was “mitigated” and the podocyte population (Nphs2^R140Q/− mice [3]; delayed treatment, 4 weeks of treatment, Example 2) was “No notable effects”. For the same compound, the “number of podocytes per glomerulus” value (Nphs2^R140Q/− mice [3]; treated animals, WT1 immunostaining, Example 1) was “no effect”, the “ETAR mRNA expression” value [4] was “lower expression” and the “ETBR mRNA expression” value [4] was “lower expression”. The “endothelin-1 mRNA expression” value [4] was “lower expression”, the “protein expression of endothelin-1” value ([4]; Western blot) was “decreased protein expression” and the Podocin protein abundance (podocin; Western blot) was “partly preserved”. For the same compound, the “Podocin mRNA expression” value (podocin; qRT-PCR) was “partly preserved” and the “relative selectivity for ETA receptor over ETB receptor” value (ETA receptor) was “greater than 1,800 fold”.
